Read-outs that look alike come from different tables or passages of the source.
Experiments:
[1] = system: orchidectomized male Wistar rats; assay: In vivo modified Hershberger assay (Test 2); set-up: species or system rat; conditions: for weights of levator ani compared to prostate: orchidectomized male rats; for weights of levator ani compared to prostate / luteinizing hormone (LH) levels: 14 days treatment; for luteinizing hormone (LH) levels: in comparison to ORX animals; for plasma drug concentration: day 15, 3 hours after last dose
Description: The test article Testosterone Propionate is dissolved using 10% ethanol, 90% corn oil. Ostarine is suspended in 1% CMC, 0.1% Tween-80, water. Compounds of examples 1 and 5 are dissolved in 50% PEG 200 and 50% of saline. Ostarine is administered orally at 1 ml/kg volume. Testosterone Propionate, Compounds of examples 1 and 5 are administered subcutaneously to 14 days prior orchidectomized male rats at 1 ml per kg body weight for a period of 14 days. Each group of 6 rats receives dosages of 0.01, 0.1, 1 and 10 mg/kg. 6 animals each serves as sham control and ORX control and are administered vehicle at 1 ml/kg.
Testosterone Propionate is subcutaneously administered at doses of 0.03, 0.1, 0.3, 1.3 and 10 mg/kg. Ostarine is given orally at doses of 0.001, 0.003, 0.01, 0.03, 0.1, 0.3, 1.3 and 10 mg/kg.
The various investigations like mortality, clinical signs, body weight, food consumption, drug concentration analysis (day 15), clinical pathology and gross pathology parameters are performed on all groups.
Evaluation of Testosterone Propionate, Ostarine, examples 1 and 5 in modified Hershberger assay in male wistar rats was conducted at the Department of Preclinical Biology, Aurigene Discovery Technologies Ltd., Bangalore, India.

[2] = molecular target: T1, androgen receptor (AR) (Homo sapiens, UniProt P10275); assay: AR transcriptional activation luciferase reporter assay in C2C12 cells (Test 1); format: cell-based
T1 construct: transfecting C2C12 cells with a plasmid containing full-length AR along with an AR response element linked to luciferase; expressed in transfected cells; host or cells: mouse myoblastic C2C12 cells (ATCC CRL-1772), transient transfection with Lipofectamine 2000
T1 sequence (P10275 1-920): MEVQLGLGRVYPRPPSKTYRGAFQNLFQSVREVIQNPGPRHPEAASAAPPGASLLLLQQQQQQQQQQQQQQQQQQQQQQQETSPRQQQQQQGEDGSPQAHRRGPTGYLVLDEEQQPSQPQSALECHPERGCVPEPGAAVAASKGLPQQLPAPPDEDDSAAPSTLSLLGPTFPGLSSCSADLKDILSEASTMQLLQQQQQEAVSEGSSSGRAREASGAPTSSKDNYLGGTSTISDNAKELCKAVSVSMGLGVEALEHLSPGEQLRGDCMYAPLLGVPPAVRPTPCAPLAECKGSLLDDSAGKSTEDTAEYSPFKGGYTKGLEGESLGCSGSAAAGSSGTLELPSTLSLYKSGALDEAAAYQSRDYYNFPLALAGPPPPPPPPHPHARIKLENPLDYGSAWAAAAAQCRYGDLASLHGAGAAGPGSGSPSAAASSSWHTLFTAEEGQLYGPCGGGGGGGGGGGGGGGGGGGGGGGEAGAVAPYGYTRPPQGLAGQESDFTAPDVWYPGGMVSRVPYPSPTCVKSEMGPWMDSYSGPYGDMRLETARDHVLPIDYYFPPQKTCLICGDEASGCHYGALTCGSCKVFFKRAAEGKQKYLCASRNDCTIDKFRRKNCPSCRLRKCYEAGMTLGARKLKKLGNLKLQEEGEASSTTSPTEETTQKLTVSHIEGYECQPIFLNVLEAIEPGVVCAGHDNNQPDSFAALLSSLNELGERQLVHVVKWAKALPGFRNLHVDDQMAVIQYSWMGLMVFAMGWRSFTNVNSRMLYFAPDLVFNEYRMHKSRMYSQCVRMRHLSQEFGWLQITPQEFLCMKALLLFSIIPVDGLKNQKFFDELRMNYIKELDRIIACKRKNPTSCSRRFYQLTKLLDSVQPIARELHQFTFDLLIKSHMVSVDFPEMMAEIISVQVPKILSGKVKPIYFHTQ
Description: A suitable assay to determine the ability of a ligand to transcriptionally activate androgen receptor (AR) is carried out using mouse myoblastic C2C12 cells. The assay involves transfecting C2C12 cells with a plasmid containing full-length AR along with an AR response element linked to luciferase (2XIDR17). The luminescence read-out at the end of the assay is measured using Victor 3 and is a direct measure of the transcriptional activity. The assay has been validated using the reference compound, BMS-564929, for which EC50 values have been reported in a similar set-up. Other tool compounds that have been used for assay validation are GSK-420A, Andarine, putative Ostarine, and LGD-2226.
C2C12 cells were obtained from ATCC (Cat # CRL-1772) and maintained in DMEM modified to contain 4 mM L-glutamine, 4.5 g/L glucose, 1 mM sodium pyruvate and 1.5 g/L sodium bicarbonate and 10% FBS.
AR-FL in pcDNA 3.1(+) and 2XIDR17 in pGL4.26 plasmids prepared using Genelute plasmid miniprep kit from Sigma Cat # PLED35
• C2C12 cells were seeded in a 96-well plate in DMEM (Dulbecco's Modified Eagle Medium) without phenol red and containing 10% CS-FBS (Charcoal-stripped Fetal Bovine Serum) at 8000 cells/well. • The next day, cells were transfected with an equimolar ratio of (Androgen Receptor-Full length) AR-FL and 2XIDR17-Luciferase at a total plasmid concentration of 200 ng/well using Lipofectamine 2000 following manufacturer's protocol. • For the transfection, 83 ng of AR-FL and 117 ng of 2XIDR17-Luciferase were in 12.5 μl of OptiMEM—Mix A. 0.4 μl of Lipofectamine 2000 was added to 12.5 μl of OptiMEM and incubated for 5 min at room temperature—Mix B. The two mixes A and B were mixed and incubated at room temperature for an additional fifteen minutes. An additional 50 μl of OptiMEM was added, gently mixed and this mixture was added to the cells in the 96-well plate. The above quantities are requirements per well of a 96-well plate. Master mixes were made for the entire plate, with proportional quantity of reagents being used. • 5 h after transfection, compounds were added to the wells in DMEM without phenol red and containing 10% CS-FBS, maintaining a final DMSO concentration of 0.5%. A typical dose response curve starts at 10 μM and includes a 7-point, log dilution, done in triplicates. • After overnight incubation with the compounds, 100 ul of working solution of Steadyglow reagent was added to the wells. • The plates were placed in a shaker for 15 min at the end of which the lysate containing luciferase was transferred to a white flat-bottom plate and read under a luminescence setting in Victor. • Background subtracted counts (Luminescence from DMSO control wells is considered the background) are used to calculate percentage activity, expressed relative to activity with 1 μM (Dihydrotestosterone) DHT (at least two sets of triplicates for 1 μM DHT are included per plate). Data Fitting: • The EC50 curves for the compounds for 8 compound concentrations were fitted by the respective function using non-linear least-squares regression in Graphpad Prism 4.0 (Graphpad Software, San Diego, Calif., USA).

[3] = mouse myoblastic C2C12 cells transfected with AR-FL and 2XIDR17-luciferase, read-out: Biological activity (C2C12 cell) EC50

SMILES	weights of levator ani compared to prostate [1]	luteinizing hormone (LH) levels [1]	plasma drug concentration [1]	EC50 [2]	also measured
CCC(=O)O[C@H]1CC[C@H]2[C@@H]3CCC4=CC(=O)CC[C@]4(C)[C@H]3CC[C@]12C [Testosterone Propionate, reference compound]	did not show any selectivity on levator ani versus prostate	–	–	–	–
C[C@](O)(COc1ccc(C#N)cc1)C(=O)Nc1ccc(C#N)c(C(F)(F)F)c1 [Ostarine, reference compound]	dose dependent selective increase in weights of levator ani compared to prostate	concurrent decrease of LH levels	dose dependent increase	–	–
COCCO[C@@H]1C(c2ccc(C#N)c(Cl)c2C)=NN2C[C@H](O)C[C@@H]12 [Example 26]	–	–	–	158 nM	–
CCO[C@@H]1C(c2ccc(C#N)c(Cl)c2C)=NN2CC[C@H](O)[C@@H]12 [Example 5, 2-chloro-4-((3S,3aS,4S)-3-ethoxy-4-hydroxy-3a,4,5,6-tetrahydro-3H-pyrrolo[1,2-b]pyrazol-2-yl)-3-methylbenzonitrile]	dose dependent selective increase in weights of levator ani compared to prostate	concurrent decrease of LH levels	dose dependent increase	1.2 nM	–
CO[C@@H]1C(c2ccc(C#N)c(Cl)c2C)=NN2C[C@@H](F)C[C@@H]12 [Example 14, 2-chloro-4-((3S,3aS,5S)-5-fluoro-3-methoxy-3a,4,5,6-tetrahydro-3H-pyrrolo[1,2-b]pyrazol-2-yl)-3-methylbenzonitrile]	–	–	–	1.7 nM	–
CO[C@@H]1C(c2ccc(C#N)c(Cl)c2C)=NN2CC[C@H](O)[C@@H]12 [Example 1, 2-chloro-4-((3S,3aS,4S)-4-hydroxy-3-methoxy-3a,4,5,6-tetrahydro-3H-pyrrolo[1,2-b]pyrazol-2-yl)-3-methylbenzonitrile]	dose dependent selective increase in weights of levator ani compared to prostate	concurrent decrease of LH levels	dose dependent increase	–	EC50 [2, 3]: 0.5 nM
CO[C@H]1CCN2N=C(c3ccc(C#N)c(Cl)c3C)[C@@H](OC)[C@H]12 [Example 20, 2-chloro-4-((3S,3aS,4S)-3,4-dimethoxy-3a,4,5,6-tetrahydro-3H-pyrrolo[1,2-b]pyrazol-2-yl)-3-methylbenzonitrile]	–	–	–	–	EC50 [2, 3]: 7.1 nM
CO[C@@H]1C(c2ccc(C#N)c(Cl)c2C)=NN2CC[C@@H](O)[C@@H]12 [Example 2, 2-chloro-4-((3S,3aS,4R)-4-hydroxy-3-methoxy-3a,4,5,6-tetrahydro-3H-pyrrolo[1,2-b]pyrazol-2-yl)-3-methylbenzonitrile]	–	–	–	0.6 nM	–
Cc1c(C2=NN3CC[C@H](O)[C@H]3[C@@H]2O)ccc(C#N)c1Cl [Example 3, 2-chloro-4-((3S,3aS,4S)-3,4-dihydroxy-3a,4,5,6-tetrahydro-3H-pyrrolo[1,2-b]pyrazol-2-yl)-3-methylbenzonitrile]	–	–	–	821 nM	–
Cc1c(C2=NN3CC[C@@H](O)[C@H]3[C@@H]2O)ccc(C#N)c1Cl [Example 4, 2-chloro-4-((3S,3aS,4R)-3,4-dihydroxy-3a,4,5,6-tetrahydro-3H-pyrrolo[1,2-b]pyrazol-2-yl)-3-methylbenzonitrile]	–	–	–	–	% Biological activity (C2C12 cell) 100 nM ([2]; 100 nM compound, activity relative to 1 μM DHT): 5%; % Biological activity (C2C12 cell) 5 μM ([2]; 5 μM compound, activity relative to 1 μM DHT): 32%

— patent publication US9051326B2, “Pyrazoline derivatives and their use as selective androgen receptor modulators” (NOVARTIS AG, priority 2011, dated 2015)
